Reference: patent US11419865B2, “Method for inducing a sustained immune response” (Cytocom Inc., priority 2016, dated 2022)

Key:
[1] = test system: Autoimmune Hepatitis-Type 1 patient; assay: Autoimmune Hepatitis-Type 1 case report; settings: 4.5 mg nightly
[2] = test system: patients diagnosed with fibromyalgia; assay: open label single center study, twenty-five fibromyalgia patients; format: in vivo, human; settings: 4.5 mg
[3] = test system: HIV; assay: naltrexone as adjunct therapy, 50 HIV/AIDS patients in Africa with standard of care; format: in vivo, human
Description: Naltrexone as an adjunct therapy with HIV/AIDS patients. […] HIV disease is associated with a new constellation of problems, generally referred to as “non-AIDS morbidity”, and, in the popular press, “premature aging. […] at risk for developing a number of non-AIDS conditions, including cardiovascular disease, cancer, kidney disease, liver disease, osteopenia/osteoporosis and neurocognitive disease (collectively referred to as “serious non-AIDS events”). Malignancies associated with infections such as human papilloma virus (including uro-genital and head and neck cancers), Epstein Barr Virus (including Hodgkins disease), and hepatitis B and C (hepatocellular carcinoma), are also relatively common in HIV-infected adult. […] Subtle elevations in many of these biomarkers are associated with dramatic increases in the risk of subsequent disease, including all-cause mortality For example, as compared to a well-matched uninfected population, treated HIV-infected adults have approximately 50 to 100% higher levels of the inflammatory cytokine interleukin-6 (IL-6)^(32). […] Risk factors for impaired CD4 T-cell recovery include low pre-treatment CD4+ T cell count nadir, co-infection with other viruses such as hepatitis C, older age, and perhaps viral factors (24). […]

[4] = test system: patients with primary progressive multiple sclerosis (PPMS); assay: six month phase II multicenter pilot trial in primary progressive multiple sclerosis, 40 patients; format: in vivo, human
Procedure: […]. The primary end points were safety and tolerability. Secondary outcomes were efficacy on spasticity, pain, fatigue, depression, and quality of life. Clinical and biochemical evaluations were serially performed. Protein concentration of beta-endorphins (BE) and mRNA levels and allelic variants of the mu-opioid receptor gene (OPRM1) were analyzed.

[5] = test system: Hepatitis B; assay: Hepatitis B case report; format: in vivo, human; settings: 1 mg
[6] = test system: ovarian cancer cells; assay: ovarian cancer cells treated with different dosing regimens of naltrexone; format: cell-based
Procedure: […]. They also prevent the adhesion of cancer cells to bone marrow stromal cells and thereby inhibit the enhanced secretion of migratory factors, such as interleukin (IL)-6, TNF-α, and vascular endothelial growth factor. In research experiments, ovarian cancer cells were treated with either water as the control or different dosing regimens of naltrexone to replicate high dose versus Immediate release dosing of naltrexone.

[7] = test system: women meeting criteria for fibromyalgia; assay: fibromyalgia study in ten women; format: in vivo, human; settings: 4.5 mg
Description: […]. […] Baseline erythrocyte sedimentation rate predicted over 80% of the variance in drug response. […]. Which confirms the ability of Immediate release naltrexone to decree pain and inflammation.

[8] = test system: patients with hematologic malignancies; assay: randomized controlled trial of quality of life (EORTC QLQ-C30), 89 hematologic cancer patients; format: in vivo, human
Procedure: 89 patients Hematologic Cancer Patients This was a randomized controlled trial assessing quality of life in patients with hematologic malignancies from a single institute in Hamedan. […] Quality of life was measured using the EORTC QLQ-C30 in four points in time (at admission, 1, 3 and 5 months follow-up).
Data were analyzed to compare quality of life in two groups. In total, 89 patients were studied (45 in treatment group and 44 in placebo group). There were no significant differences between two groups either in demographic and clinical characteristics or in baseline quality of life scores.
This study aimed to investigate its effect on hematologic cancer patients. This was a randomized controlled trial assessing quality of life in patients with hematologic malignancies from a single institute. […] Quality of life was measured using the EORTC QLQ-C30 in four points in time (at admission, 1, 3 and 5 months follow-up). Data were analyzed to compare quality of life in two groups. Totally, 89 patients were studied (45 in treatment group and 44 in placebo group). There were no significant differences between two groups either in demographic and clinical characteristics or in baseline quality of life scores. However, at 1 month, 3 and 5-month follow-up assessments significant differences were observed. […].

[9] = test system: CRPS patients
[10] = test system: children with autism; assay: autism case reports
[11] = test system: Hepatitis C; assay: Hepatitis C case reports; format: in vivo, human

Q: `O=C1CC[C@@]2(O)[C@H]3Cc4ccc(O)c5c4[C@@]2(CCN3CC2CC2)[C@H]1O5` [Immediate release naltrexone, naltrexone] was tested. Which “side effects, person, Autoimmune Hepatitis-Type 1” value [1] did it give?
A: vivid dreams and mild indigestion in the first two weeks

Q: What about the “average improvement in FIQR in eleven patients (50%)” value [2] of the same molecule?
A: 41%

Q: What about the “inflammatory cytokine and Th1/Th2 balance” value ([3]; adjunct to standard of care (ART)) of the same molecule?
A: Secreased inflammatory cytokine and a shift from Th1 (pro-inflammatory) to Th2 (anti-inflammatory)

Q: What about the “opportunistic infection and quality of life” value ([3]; adjunct to standard of care, long term) of the same molecule?
A: reduction in opportunistic infection and a higher quality of live

Q: And the Neurological disability ([4]; 40 patients)?
A: progressed in only one patient

Q: And the “dropouts and major adverse events” value ([4]; 40 patients)?
A: Five dropouts and two major adverse events occurred

Q: And the spasticity ([4]; end of the six month trial)?
A: significant reduction of spasticity

Q: And the “beta-endorphins (BE) concentration” value ([4]; human, in vivo)?
A: increased during the trial

Q: And the safety and tolerability ([4]; human, in vivo)?
A: safe and well tolerated

Q: And the “additional benefits, child, Hepatitis B” value [5]?
A: resolutions of eczema

Q: And the “serology, child, Hepatitis B” value ([5]; within 7 months)?
A: Sero-conversion to negative antigens and positive antibodies

Q: And the “ALT/AST, child, Hepatitis B” value ([5]; within one month)?
A: decreased to normal

Q: And the “viral load, child, Hepatitis B” value ([5]; within one month, from 59.2 million)?
A: 53,000

Q: What about the “growth of cancer cells” value ([6]; Immediate release low or short-term dosing, control water) of the same molecule?
A: growth of cancer cells was slowed

Q: What about the “growth of cancer cells” value ([6]; high dose of naltrexone) of the same molecule?
A: cancer cells were stimulated and grew faster

Q: And the “Side effects (including insomnia and vivid dreams)” value [7]?
A: rare, and described as minor and transient

Q: And the “mechanical and heat pain thresholds” value ([7]; laboratory visits)?
A: improved

Q: And the “social functioning (EORTC QLQ-C30) vs placebo” value ([8]; 3 mg capsules daily plus routine treatment, one month follow-up, p<0.05)?
A: better condition in the treatment group

Q: And the blood laboratory tests ([8]; 3 mg daily)?
A: no changes in the blood laboratory tests

Q: What about the “social functioning, role functioning, nausea and vomiting and appetite loss vs placebo” value ([8]; 3 mg daily, 3-month follow-up, all p-values<0.05) of the same molecule?
A: better in the treatment group

Q: What about the “physical, social, role functioning, global quality of life, nausea and vomiting and appetite loss vs placebo” value ([8]; 3 mg daily, 5-month follow-up) of the same molecule?
A: significantly better

Q: What about the “pain scores NRS (out of 10), person one, CRPS and EDS” value ([9]; 3 mg once a day, then 4.5 mg per day, from (7-10)/10) of the same molecule?
A: 3-5

Q: And the “allodynia and sensitivity, person one, CRPS” value ([9]; 3 mg then 4.5 mg per day)?
A: decrease in allodynia, as well as a decrease in sensitivity to touch and temperature change

Q: And the “dystonia, initial treatment, person one, CRPS” value ([9]; 3 mg then 4.5 mg per day, before surgery)?
A: no effect on the dystonia

Q: What about the “side effects, person three, CRPS” value ([9]; 4.5 mg per day) of the same molecule?
A: No side effects

Q: What about the “average pain on the Numeric Rating Scale (NRS), person three, CRPS” value ([9]; 4.5 mg per day at night, before 8 to 10) of the same molecule?
A: 5 to 6

Q: What about the “requirements for intravenous ketamine infusions, person three, CRPS” value ([9]; 4.5 mg per day, by March of 2012, 6 week intervals) of the same molecule?
A: not as frequent

Q: And the “walking, person three, CRPS” value ([9]; 4.5 mg per day, cane used continuously since 2006)?
A: able to walk without a cane

Q: And the “dystonic spasms, person three, CRPS” value ([9]; 4.5 mg per day, within 2 months)?
A: dystonic spasms discontinued

Q: What about the “post-operative pain NRS (out of 10), person one, CRPS” value ([9]; 3 weeks after resuming drug) of the same molecule?
A: 4-6

Q: What about the “side effects, person one, CRPS” value ([9]; 18 months) of the same molecule?
A: No side effects

Q: What about the “fixed dystonia at cast removal, person one, CRPS” value ([9]; after ankle reinforcement surgery, on drug) of the same molecule?
A: remission of the leg's fixed dystonia

Q: What about the “CRPS symptoms, person one” value ([9]; maintained for 18 months) of the same molecule?
A: CRPS symptoms have resolved completely

Q: What about the “initial effect, child, Autism” value ([10]; 3 mg) of the same molecule?
A: hyperactivity increased for the first three weeks

Q: What about the “side effect, child, Autism” value ([10]; 5 ml at bedtime) of the same molecule?
A: a little constipation

Q: And the “Viral load, person, Hepatitis C & stage 4 cirrhosis” value ([11]; 4.5 mg, by August of 2011)?
A: 8.3 million

Q: And the “HCV viral load, person” value ([11]; May 2010)?
A: 11.400

Q: And the “ultrasound and liver enzymes, person, Hepatitis C” value ([11]; all other medication stopped)?
A: No fatty liver, Liver enzymes dropped to normal

Q: And the “HCV viral load, person” value ([11]; started February of 2009, May 2009, from over a million in January 2009)?
A: 49,000
